For one data set, the system named is microbial growth. To be noted: cited from earlier work.
For data set [1] the following is noted: relative to sucrose, baseline 1.0; cited from earlier work.
For data set [2] the following is noted: on the palate; reb-M used alone or substantially alone, compared to established rebaudioside sweeteners including reb-A; cited from earlier work.
Data set [3] can be described thus: Solubility and retention of reb-M in 1,3-propanediol after heating and cooling. Type of data set: physicochemical. Here is the method:
The solvent or liquid base for the sweetener composition may comprise 1,3-propanediol and optionally one or more additional solvents. […] (175° F.) and cooled to room temperature. […] (36° F.).

The conditions of data set [4]: room temperature; cited from earlier work.

Converted amounts (≈) assume the structure as drawn.

On to 1,3-propanediol, for which the “minimum inhibitory concentration (MIC) compared with other solvents such as glycerin” value in the data set on microbial growth is reported as “lower”.
Regarding `O=C(CO)[C@@H](O)[C@H](O)[C@H](O)CO` [fructose], in data set [1], the sweetness index entry is recorded as “approximately 1.7”.
`C=C1C[C@@]23CC[C@H]4[C@@](C)(CCC[C@@]4(C)C(=O)O[C@@H]4O[C@H](CO)[C@@H](O)[C@H](O)[C@H]4O)[C@@H]2CC[C@]1(O[C@@H]1O[C@H](CO)[C@@H](O)[C@H](O[C@@H]2O[C@H](CO)[C@@H](O)[C@H](O)[C@H]2O)[C@H]1O[C@@H]1O[C@H](CO)[C@@H](O)[C@H](O)[C@H]1O)C3` [reb-A, Rebaudioside A]: the bitter aftertaste result in data set [2] is “bitter aftertaste”.
`C=C1C[C@@]23CC[C@H]4[C@@](C)(CCC[C@@]4(C)C(=O)O[C@@H]4O[C@H](CO)[C@@H](O)[C@H](O[C@@H]5O[C@H](CO)[C@@H](O)[C@H](O)[C@H]5O)[C@H]4O[C@@H]4O[C@H](CO)[C@@H](O)[C@H](O)[C@H]4O)[C@@H]2CC[C@]1(O[C@@H]1O[C@H](CO)[C@@H](O)[C@H](O[C@@H]2O[C@H](CO)[C@@H](O)[C@H](O)[C@H]2O)[C@H]1O[C@@H]1O[C@H](CO)[C@@H](O)[C@H](O)[C@H]1O)C3` [reb-M, rebaudioside-M]: the solubility – broadly, how much of the substance goes into solution per volume – in data set [3] (1,3-propanediol, organic solvent or mixture, thermodynamic from solid, solvent heated in excess of 80° C. (175° F.) and cooled to room temperature) was about 795 mg/mL (≈ 616 mM). Moreover, the entries for the “retention in solution on cooling” value in data set [3] (heated 1,3-propanediol solution cooled back to room temperature) and in data set [3] (heated 1,3-propanediol solution cooled to approximately 2° C. (36° F.)) were “retained in the solution” and “retained in solution”, respectively. For the same molecule, in data set [2], the bitter aftertaste result is on record as “reduced bitterness of aftertaste”. Besides, the solubility in water result in data set [4] is recorded as “up to 0.1 g per 100 ml water”.
As to `OC[C@H]1O[C@@](CO)(O[C@H]2O[C@H](CO)[C@@H](O)[C@H](O)[C@H]2O)[C@@H](O)[C@@H]1O` [sucrose], the sweetness index in data set [1] is recorded as 1.0.

The values are drawn from US11825868B2, “Sweetener composition” (Hapy Sweet Bee Ltd, priority 2019, dated 2023).
